{
  "source": "PubChem BioAssay AID1259407",
  "about": "(Chemical Carcinogenesis Research Information System (CCRIS), 2018)",
  "system": "CCRIS mutagenicity, Ames/micronucleus/aberration tests",
  "assay": "CCRIS mutagenicity studies",
  "key": {"[1]": {"conditions": "Test System: AMES SALMONELLA TYPHIMURIUM, Strain/Indicator: TA98, Metabolic Activation: NONE, Method: PREINCUBATION"}, "[2]": {"conditions": "Test System: AMES SALMONELLA TYPHIMURIUM, Strain/Indicator: TA100, Metabolic Activation: NONE, Method: PREINCUBATION"}, "[3]": {"conditions": "Test System: AMES SALMONELLA TYPHIMURIUM, Strain/Indicator: TA100, Metabolic Activation: NONE, Method: STANDARD PLATE"}},
  "note": "Activity calls are given as the source filed them. The rule behind the calls is not given here.",
  "data": [
    {"smiles": "C#CCNC(=NCCSCc1nc[nH]c1C)NC#N", "values": [
      {"measurement": "mutagenic call", "setting": "[1]", "value": "inactive; negative"},
      {"measurement": "mutagenic call", "setting": "Test System: AMES SALMONELLA TYPHIMURIUM, Strain/Indicator: TA98, Metabolic Activation: RAT, LIVER, S-9, SODIUM PHENOBARBITAL AND BETA-NAPHTHOFLAVONE, Method: PREINCUBATION", "value": "inactive; negative"},
      {"measurement": "mutagenic call", "setting": "[2]", "value": "inactive; negative"},
      {"measurement": "mutagenic call", "setting": "Test System: AMES SALMONELLA TYPHIMURIUM, Strain/Indicator: TA100, Metabolic Activation: RAT, LIVER, S-9, SODIUM PHENOBARBITAL AND BETA-NAPHTHOFLAVONE, Method: PREINCUBATION", "value": "inactive; negative"},
      {"measurement": "mutagenic call", "setting": "Test System: AMES SALMONELLA TYPHIMURIUM, Strain/Indicator: TA1535, Metabolic Activation: NONE, Method: PREINCUBATION", "value": "inactive; negative"},
      {"measurement": "mutagenic call", "setting": "Test System: AMES SALMONELLA TYPHIMURIUM, Strain/Indicator: TA1535, Metabolic Activation: RAT, LIVER, S-9, SODIUM PHENOBARBITAL AND BETA-NAPHTHOFLAVONE, Method: PREINCUBATION", "value": "inactive; negative"},
      {"measurement": "mutagenic call", "setting": "Test System: AMES SALMONELLA TYPHIMURIUM, Strain/Indicator: TA1537, Metabolic Activation: NONE, Method: PREINCUBATION", "value": "inactive; negative"},
      {"measurement": "mutagenic call", "setting": "Test System: AMES SALMONELLA TYPHIMURIUM, Strain/Indicator: TA1537, Metabolic Activation: RAT, LIVER, S-9, SODIUM PHENOBARBITAL AND BETA-NAPHTHOFLAVONE, Method: PREINCUBATION", "value": "inactive; negative"},
      {"measurement": "mutagenic call", "setting": "Test System: AMES SALMONELLA TYPHIMURIUM, Strain/Indicator: TA1538, Metabolic Activation: NONE, Method: PREINCUBATION", "value": "inactive; negative"},
      {"measurement": "mutagenic call", "setting": "Test System: AMES SALMONELLA TYPHIMURIUM, Strain/Indicator: TA1538, Metabolic Activation: RAT, LIVER, S-9, SODIUM PHENOBARBITAL AND BETA-NAPHTHOFLAVONE, Method: PREINCUBATION", "value": "inactive; negative"},
      {"measurement": "mutagenic call", "setting": "Test System: CHINESE HAMSTER V-79, Strain/Indicator: V-79/6-THIOGUANINE, Metabolic Activation: NONE, Method: STANDARD PLATE", "value": "inactive; negative"},
      {"measurement": "mutagenic call", "setting": "Test System: CHINESE HAMSTER V-79, Strain/Indicator: V-79/6-THIOGUANINE, Metabolic Activation: RAT, LIVER, S-9, SODIUM PHENOBARBITAL AND BETA-NAPHTHOFLAVONE, Method: STANDARD PLATE", "value": "inactive; negative"},
      {"measurement": "mutagenic call", "setting": "Test System: CHINESE HAMSTER V-79, Strain/Indicator: V-79/OUABAIN, Metabolic Activation: NONE, Method: STANDARD PLATE", "value": "inactive; negative"},
      {"measurement": "mutagenic call", "setting": "Test System: CHINESE HAMSTER V-79, Strain/Indicator: V-79/OUABAIN, Metabolic Activation: RAT, LIVER, S-9, SODIUM PHENOBARBITAL AND BETA-NAPHTHOFLAVONE, Method: STANDARD PLATE", "value": "inactive; negative"},
      {"measurement": "mutagenic call", "setting": "Test System: E. COLI, Strain/Indicator: WP2 (PKM101), Metabolic Activation: NONE, Method: PREINCUBATION", "value": "inactive; negative"},
      {"measurement": "mutagenic call", "setting": "Test System: E. COLI, Strain/Indicator: WP2 (PKM101), Metabolic Activation: RAT, LIVER, S-9, SODIUM PHENOBARBITAL AND BETA-NAPHTHOFLAVONE, Method: PREINCUBATION", "value": "inactive; negative"},
      {"measurement": "mutagenic call", "setting": "Test System: E. COLI, Strain/Indicator: WP2, Metabolic Activation: NONE, Method: PREINCUBATION", "value": "inactive; negative"},
      {"measurement": "mutagenic call", "setting": "Test System: E. COLI, Strain/Indicator: WP2, Metabolic Activation: RAT, LIVER, S-9, SODIUM PHENOBARBITAL AND BETA-NAPHTHOFLAVONE, Method: PREINCUBATION", "value": "inactive; negative"},
      {"measurement": "mutagenic call", "setting": "Test System: E. COLI, Strain/Indicator: WP2 UVRA (PKM101), Metabolic Activation: NONE, Method: PREINCUBATION", "value": "inactive; negative"},
      {"measurement": "mutagenic call", "setting": "Test System: E. COLI, Strain/Indicator: WP2 UVRA (PKM101), Metabolic Activation: RAT, LIVER, S-9, SODIUM PHENOBARBITAL AND BETA-NAPHTHOFLAVONE, Method: PREINCUBATION", "value": "inactive; negative"},
      {"measurement": "mutagenic call", "setting": "Test System: E. COLI, Strain/Indicator: WP2 UVRA, Metabolic Activation: NONE, Method: PREINCUBATION", "value": "inactive; negative"},
      {"measurement": "mutagenic call", "setting": "Test System: E. COLI, Strain/Indicator: WP2 UVRA, Metabolic Activation: RAT, LIVER, S-9, SODIUM PHENOBARBITAL AND BETA-NAPHTHOFLAVONE, Method: PREINCUBATION", "value": "inactive; negative"}
    ]},
    {"smiles": "Nc1cc(N)c(N=Nc2ccc(S(=O)(=O)O)cc2)cc1N=Nc1ccc(-c2ccc(N=Nc3ccc(C(=O)O)c(O)c3)cc2)cc1", "values": [
      {"measurement": "mutagenic call", "setting": "Test System: AMES SALMONELLA TYPHIMURIUM, Strain/Indicator: TA98, Metabolic Activation: HAMSTER, LIVER, S-9, Method: PREINCUBATION (PRIVAL METHOD)", "value": "active; positive"}
    ]},
    {"smiles": "c1ccc2c(c1)ccc1ccc3ccsc3c12", "values": [
      {"measurement": "mutagenic call", "setting": "Test System: Ames Salmonella typhimurium, Strain/Indicator: TA98, Metabolic Activation: None, Method: Plate incorporation", "value": "active; positive"},
      {"measurement": "mutagenic call", "setting": "Test System: Ames Salmonella typhimurium, Strain/Indicator: TA100, Metabolic Activation: None, Method: Plate incorporation", "value": "active; positive"},
      {"measurement": "mutagenic call", "setting": "Test System: Ames Salmonella typhimurium, Strain/Indicator: TA1040, Metabolic Activation: None, Method: Plate incorporation", "value": "inactive; negative"}
    ]},
    {"smiles": "O=C(Nc1nc(-c2ccc([N+](=O)[O-])o2)cs1)C(F)(F)F", "values": [
      {"measurement": "mutagenic call", "setting": "Test System: AMES SALMONELLA TYPHIMURIUM, Strain/Indicator: TA100, Metabolic Activation: RAT, LIVER, S-9, KC500 OR PHENOBARBITAL, Method: LIQUID SUSPENSION", "value": "active; positive"},
      {"measurement": "mutagenic call", "setting": "Test System: E. COLI WP2, Strain/Indicator: WP2, Metabolic Activation: NONE, Method: SPOT", "value": "active; positive"}
    ]},
    {"smiles": "C/C(C=O)=C(/Cl)C(=O)O", "values": [
      {"measurement": "mutagenic call", "setting": "[1]", "value": "active; positive"},
      {"measurement": "mutagenic call", "setting": "[2]", "value": "active; positive"},
      {"measurement": "mutagenic call", "setting": "Test System: AMES SALMONELLA TYPHIMURIUM, Strain/Indicator: TA104, Metabolic Activation: NONE, Method: PREINCUBATION", "value": "active; positive"}
    ]},
    {"smiles": "CC(C)CCCC(C)C1CCC2C3CC=C4CC(OCCO)CCC4(C)C3CCC12C", "note": "(centres undefined)", "values": [
      {"measurement": "mutagenic call", "setting": "Test System: AMES SALMONELLA TYPHIMURIUM, Strain/Indicator: TA98, Metabolic Activation: NONE, Method: STANDARD PLATE", "value": "inactive; negative"},
      {"measurement": "mutagenic call", "setting": "Test System: AMES SALMONELLA TYPHIMURIUM, Strain/Indicator: TA98, Metabolic Activation: RAT, LIVER, MICROSOMES, Method: STANDARD PLATE", "value": "inactive; negative"},
      {"measurement": "mutagenic call", "setting": "[3]", "value": "inactive; negative"},
      {"measurement": "mutagenic call", "setting": "Test System: AMES SALMONELLA TYPHIMURIUM, Strain/Indicator: TA100, Metabolic Activation: RAT, LIVER, MICROSOMES, Method: STANDARD PLATE", "value": "inactive; negative"}
    ]},
    {"smiles": "Oc1ccc2c(O)c3ccccc3cc2c1O", "values": [
      {"measurement": "mutagenic call", "setting": "Test System: AMES SALMONELLA TYPHIMURIUM, Strain/Indicator: TA98, Metabolic Activation: RAT, LIVER, S-9, AROCLOR 1254, Method: STANDARD PLATE", "value": "inactive; negative"},
      {"measurement": "mutagenic call", "setting": "[3]", "value": "inactive; negative"},
      {"measurement": "mutagenic call", "setting": "Test System: AMES SALMONELLA TYPHIMURIUM, Strain/Indicator: TA100, Metabolic Activation: RAT, LIVER, S-9, AROCLOR 1254, Method: STANDARD PLATE", "value": "inactive; negative"},
      {"measurement": "mutagenic call", "setting": "Test System: AMES SALMONELLA TYPHIMURIUM, Strain/Indicator: TA1535, Metabolic Activation: NONE, Method: STANDARD PLATE", "value": "inactive; negative"},
      {"measurement": "mutagenic call", "setting": "Test System: AMES SALMONELLA TYPHIMURIUM, Strain/Indicator: TA1535, Metabolic Activation: RAT, LIVER, S-9, AROCLOR 1254, Method: STANDARD PLATE", "value": "inactive; negative"},
      {"measurement": "mutagenic call", "setting": "Test System: AMES SALMONELLA TYPHIMURIUM, Strain/Indicator: TA1537, Metabolic Activation: NONE, Method: STANDARD PLATE", "value": "active; positive"},
      {"measurement": "mutagenic call", "setting": "Test System: AMES SALMONELLA TYPHIMURIUM, Strain/Indicator: TA1538, Metabolic Activation: NONE, Method: STANDARD PLATE", "value": "inactive; negative"},
      {"measurement": "mutagenic call", "setting": "Test System: AMES SALMONELLA TYPHIMURIUM, Strain/Indicator: TA1538, Metabolic Activation: RAT, LIVER, S-9, AROCLOR 1254, Method: STANDARD PLATE", "value": "inactive; negative"}
    ]},
    {"smiles": "C[C@]12C=CC(=O)C=C1CC[C@@H]1[C@@H]2[C@@H](O)C[C@@]2(C)[C@H]1CC[C@]2(O)C(=O)CO", "values": [
      {"measurement": "mutagenic call", "setting": "[1]", "value": "inactive; negative"},
      {"measurement": "mutagenic call", "setting": "Test System: AMES SALMONELLA TYPHIMURIUM, Strain/Indicator: TA98, Metabolic Activation: S-9, Method: PREINCUBATION", "value": "inactive; negative"},
      {"measurement": "mutagenic call", "setting": "[2]", "value": "inactive; negative"},
      {"measurement": "mutagenic call", "setting": "Test System: AMES SALMONELLA TYPHIMURIUM, Strain/Indicator: TA100, Metabolic Activation: S-9, Method: PREINCUBATION", "value": "inactive; negative"},
      {"measurement": "mutagenic call", "setting": "Test System: MOUSE LYMPHOMA, Strain/Indicator: L5178Y (TK+/TK-), Metabolic Activation: NONE, Method: SUSPENSION/PLATE", "value": "inactive; negative"},
      {"measurement": "mutagenic call", "setting": "Test System: MOUSE LYMPHOMA, Strain/Indicator: L5178Y (TK+/TK-), Metabolic Activation: RAT, LIVER, S-9, AROCLOR 1254, Method: SUSPENSION/PLATE", "value": "active; positive"}
    ]}
  ]
}
